The values below come from patent US20100081718A1, “CO[…]-2-DELTA LIGANDS” (Pfizer Inc, priority 2003, published 2010).

Counter-ions that a name gives are not always drawn.

Series [1] in a line: Plasma concentration (Cmax) of gabapentin in the rat.

The term melting point denotes the temperature of the solid-liquid transition. In turn, `CCC[C@@H](C)C[C@H](N)CC(=O)O.Cl` displayed a melting point of 142.5 to 142.7 °C.
The same measure, in the same setting: for `CCCC[C@@H](C)C[C@H](N)CC(=O)O` (as salt: hydrochloride) the value was 142.5 to 143.3 °C.
As usually defined, the Cmax is the maximum level reached in the sampled fluid or tissue. `NCC1(CC(=O)O)CCCCC1` [gabapentin, 1-(aminomethyl)-cyclohexylacetic acid] showed a Cmax in series [1] of 520 to 10500 ng/mL.
